Earlier results as cited in US20260345588A1, “COMBINED AGENTS WITH SYNERGISTIC EFFECTS AGAINST GLIOMAS” (Eberhard Karls Universitaet Tuebingen Medizinische Fakultaet, priority 2023, published 2026).
One block for each molecule: values may come before it.

Tests used:
[1] = test system: cellular EHMT2
[2] = test system: EHMT2; settings: EHMT2 peptide
[3] = test system: EHMT1; settings: EHMT1 peptide
[4] = test system: haspin; settings: in words
[5] = test system: Pim2; settings: Pim1 versus Pim2
[6] = test system: Pim3; settings: Pim1 versus Pim3
[7] = test system: Pim1; settings: ATP competitive inhibitor; cell-free assay
[8] = test system: Fit3; settings: in words
[9] = use of tideglusib
[10] = test system: Alzheimer's disease; settings: phase-IIa clinical trial; treatment discontinued

IC50 [1]: < 100 nM
IC50 [2]: < 100 nM
IC50 [3]: < 100 nM
Compound: CNCc1cnn(-c2cc(Nc3nc(C)cc(NC)n3)ccc2OC)c1 [EHMT 2-IN-1]

Compound: CN1CCC(CNc2ccc3ncc(-c4cccc(OC(F)(F)F)c4)n3n2)CC1 [SGI-1776]
potency to haspin [4]: potent
potency to Fit3 [8]: potent

Compound: Cn1nnc2c(C(N)=O)ncn2c1=O [Temozolomide]
injection-site reactions (people receiving the solution for infusion): injection-site reactions, such as pain, irritation, itching, warmth, swelling and redness, as well as bruising
side effects (people treated with temozolomide): nausea (feeling sick), vomiting, constipation, loss of appetite, alopecia (hair loss), headache, fatigue (tired-ness), convulsions (fits), rash, neutropenia or lymphopenia (low white-blood-cell counts), and thrombocytopenia (low blood platelet counts)

Compound: O=c1sn(-c2cccc3ccccc23)c(=O)n1Cc1ccccc1 [Tideglusib]
adverse reactions [9]: mild-moderate adverse reactions, which included transient increases in serum creatine kinase, ALT—or gGT—diarrhea, nausea, cough, fatigue, and headache
clinical efficacy in Alzheimer's disease [10]: lack of efficacy
